The data set is described as follows: physchem. From the text: Determination of the small molecule content in a complex plant matrix depends on the understanding of minimum solubility in the chosen extraction solvent. […] Often, tests on mixture are hardly reproducible on pure compounds if this aspect is not routinely considered in the workflow. We performed a general testing of best solvent systems to compare a wide range of small molecules of interest to understand the limitations of general approaches within a complex plant matrix such as Nicotiana.
For each of the 29 reference compounds, 2 mg was weighed into a 15 mL glass tube and dissolved in the minimum amount of the test solvent by gradually adding the solvent with a micropipette until complete dissolution or to a final volume of 10.0 mL. Seven solvents with polarities from nonpolar to polar were chosen for the test: hexane (C6H14), CH2Cl2, CH2Cl2/MeOH (4:1, v/v), EtOH, MeOH, MeOH/H2O (7:3, v/v), and H2O. The consumed solvents and their volumes were recorded for each reference compound.

The mark [1] stands for this setting: 22 °C, organic solvent or mixture, thermodynamic from solid, Solubility in CH2Cl2, solvent dichloromethane (CH2Cl2); room temperature (21–23 °C).
[2] abbreviates: 22 °C, organic solvent or mixture, thermodynamic from solid, Solubility in EtOH, solvent ethanol; room temperature (21–23 °C).
[3] abbreviates: 22 °C, organic solvent or mixture, thermodynamic from solid, Solubility in MeOH/H2O (7:3), solvent MeOH/H2O (7:3, v/v); room temperature (21–23 °C).
The mark [4] stands for this setting: hexane (C6H14), 22 °C, organic solvent or mixture, thermodynamic from solid, Solubility in C6H14, solvent hexane (C6H14); room temperature (21–23 °C); 2 mg compound, solvent added until dissolution or 10.0 mL.
Setting [5] is: methanol, 22 °C, organic solvent or mixture, thermodynamic from solid, Solubility in MeOH, solvent methanol; room temperature (21–23 °C).
Where [6] appears, read: solvent CH2Cl2/MeOH (4:1, v/v); room temperature (21–23 °C).
[7] abbreviates: water, 22 °C, thermodynamic from solid, Solubility in H2O, solvent water; room temperature (21–23 °C).
Setting [8] is: 22 °C, organic solvent or mixture, thermodynamic from solid, Solubility in CH2Cl2.
The mark [9] stands for this setting: 22 °C, organic solvent or mixture, thermodynamic from solid, Solubility in EtOH.
Where [10] appears, read: 22 °C, organic solvent or mixture, thermodynamic from solid, Solubility in MeOH/H2O (7:3).
The mark [11] stands for this setting: 22 °C, organic solvent or mixture, thermodynamic from solid, Solubility in C6H14, solvent hexane (C6H14); room temperature (21–23 °C); 2 mg compound, solvent added until dissolution or 10.0 mL.
Where [12] appears, read: 22 °C, organic solvent or mixture, thermodynamic from solid, Solubility in CH2Cl2/MeOH (4:1), solvent CH2Cl2/MeOH (4:1, v/v); room temperature (21–23 °C).
[13] abbreviates: 22 °C, organic solvent or mixture, thermodynamic from solid, Solubility in MeOH, solvent methanol; room temperature (21–23 °C).
Where [14] appears, read: 22 °C, water, thermodynamic from solid, Solubility in H2O, solvent water; room temperature (21–23 °C).
[15] abbreviates: MeOH/H2O (7:3, v/v), 22 °C, organic solvent or mixture, thermodynamic from solid, Solubility in MeOH/H2O (7:3), solvent MeOH/H2O (7:3, v/v); room temperature (21–23 °C).
[16] abbreviates: dichloromethane (CH2Cl2), 22 °C, organic solvent or mixture, thermodynamic from solid, Solubility in CH2Cl2, solvent dichloromethane (CH2Cl2); room temperature (21–23 °C).
The mark [17] stands for this setting: ethanol, 22 °C, organic solvent or mixture, thermodynamic from solid, Solubility in EtOH, solvent ethanol; room temperature (21–23 °C).
[18] abbreviates: solvent MeOH/H2O (7:3, v/v); room temperature (21–23 °C).
[19] abbreviates: solvent dichloromethane (CH2Cl2); room temperature (21–23 °C).
The mark [20] stands for this setting: solvent ethanol; room temperature (21–23 °C).
Where [21] appears, read: solvent hexane (C6H14); room temperature (21–23 °C); 2 mg compound, solvent added until dissolution or 10.0 mL.
The mark [22] stands for this setting: solvent methanol; room temperature (21–23 °C).
[23] abbreviates: solvent water; room temperature (21–23 °C).
Where [24] appears, read: 22 °C, organic solvent or mixture, thermodynamic from solid, Solubility in C6H14.
Where [25] appears, read: 22 °C, organic solvent or mixture, thermodynamic from solid, Solubility in MeOH.
Where [26] appears, read: 22 °C, water, thermodynamic from solid, Solubility in H2O.

What is called solubility is how much of the substance goes into solution per volume.

Converted amounts (≈) assume the structure as drawn.

For `NC(=O)c1cccnc1` [Nicotinamide], the solubility was under 0.19 mg/mL under setting [1]; 20.8 mg/mL (≈ 170 mM) under setting [2]; 114 mg/mL (≈ 933 mM) under setting [3]; under 0.19 mg/mL under setting [4]; 66.3 mg/mL (≈ 543 mM) under setting [5]; 150 mg/mL (≈ 1230 mM) under setting [7]. Moreover, the “Solubility in CH2Cl2/MeOH (4:1)” value runs as follows: under setting [6], 37.3 mg/mL (≈ 305 mM); (solvent CH2Cl2/MeOH (4:1, v/v); room temperature (21–23 °C); listed as nicotinamide) under 100 mg/mL.

For the compound `O=C(O)c1cccnc1` [Nicotinic acid], the solubility runs as follows: under setting [8], under 0.19 mg/mL; under setting [9], 3.51 mg/mL (≈ 28.5 mM); under setting [10], 2.85 mg/mL (≈ 23.1 mM); under setting [4], under 0.19 mg/mL; under setting [5], 6.71 mg/mL (≈ 54.5 mM); under setting [7], 3.1 mg/mL (≈ 25.2 mM).

With `c1cncc([C@@H]2CCCN2)c1` [Nornicotine], the solubility runs as follows: under setting [11], 358 mg/mL (≈ 2420 mM); under setting [1], 422 mg/mL (≈ 2850 mM); under setting [12], 412 mg/mL (≈ 2780 mM); under setting [2], 396 mg/mL (≈ 2670 mM); under setting [13], 428 mg/mL (≈ 2890 mM); under setting [3], 418 mg/mL (≈ 2820 mM). In addition, the concentration in solution under setting [14] (solubility) was 416 mg/mL (≈ 2810 mM).

For `C[C@@H]1O[C@@H](OC[C@H]2O[C@@H](Oc3c(-c4ccc(O)c(O)c4)oc4cc(O)cc(O)c4c3=O)[C@H](O)[C@@H](O)[C@@H]2O)[C@H](O)[C@H](O)[C@H]1O` [Rutin], the solubility is, setting by setting: under setting [15], 0.52 mg/mL (≈ 0.852 mM); under setting [16], under 0.19 mg/mL; under setting [17], 6.67 mg/mL (≈ 10.9 mM); under setting [4], under 0.19 mg/mL; under setting [5], 49 mg/mL (≈ 80.3 mM); under setting [7], under 0.19 mg/mL. In addition, the “Solubility in CH2Cl2/MeOH (4:1)” value under setting [6] was 3.82 mg/mL (≈ 6.26 mM) and the “Solubility in CH2Cl2/MeOH (4:1)” value (solvent CH2Cl2/MeOH (4:1, v/v); room temperature (21–23 °C); listed as rutin) is on record as under 100 mg/mL.

As for `C=C[C@](C)(O)CC[C@@H]1[C@@]2(C)CCCC(C)(C)[C@@H]2CC[C@@]1(C)O` [Sclareol], the solubility is, setting by setting: (CH2Cl2/MeOH (4:1, v/v), 22 °C, organic solvent or mixture, thermodynamic from solid, Solubility in CH2Cl2/MeOH (4:1), solvent CH2Cl2/MeOH (4:1, v/v); room temperature (21–23 °C)) 219 mg/mL (≈ 710 mM); under setting [15], 3.17 mg/mL (≈ 10.3 mM); under setting [16], 58 mg/mL (≈ 188 mM); under setting [17], 75.7 mg/mL (≈ 245 mM); under setting [4], 3.76 mg/mL (≈ 12.2 mM); under setting [5], 65.7 mg/mL (≈ 213 mM). Under setting [7], this compound showed a solubility of under 0.19 mg/mL.

In the case of `CC(C)=CCC/C(C)=C/CC/C(C)=C/CC/C(C)=C/CC/C(C)=C/CC/C(C)=C/CC/C(C)=C/CC/C(C)=C/CC/C(C)=C/CO` [Solanesol], the “Solubility in CH2Cl2/MeOH (4:1)” value under setting [6] was 203 mg/mL (≈ 322 mM). The “Solubility in MeOH/H2O (7:3)” value under setting [18] is reported as “NS (not soluble, insoluble in the solvent at the tested concentration range (0.19–558 mg/mL))”. Under setting [19], the “Solubility in CH2Cl2” value was 235 mg/mL (≈ 372 mM). In addition, under setting [20], the “Solubility in EtOH” value is 3.31 mg/mL (≈ 5.24 mM). Further, the “Solubility in C6H14” value under setting [21] is recorded as 42.0 mg/mL (≈ 66.6 mM). In addition, the “Solubility in MeOH” value under setting [22] was determined as 0.51 mg/mL (≈ 0.808 mM). Further, under setting [23], the “Solubility in H2O” value was “NS (not soluble, insoluble in the solvent at the tested concentration range (0.19–558 mg/mL))”.

On to `CC(C)=CCC/C(C)=C/CC/C(C)=C/CC/C=C(\C)CC/C=C(\C)CCC=C(C)C` [Squalene], for which the solubility is, setting by setting: under setting [11], 446 mg/mL (≈ 1090 mM); under setting [1], 474 mg/mL (≈ 1150 mM); under setting [12], 472 mg/mL (≈ 1150 mM); under setting [2], 5.94 mg/mL (≈ 14.5 mM); under setting [13], 0.22 mg/mL (≈ 0.536 mM); under setting [3], under 0.19 mg/mL. This compound also gave a solubility under setting [14] of under 0.19 mg/mL.

Regarding `C=C1CC[C@H](O)C/C1=C/C=C1\CCC[C@]2(C)[C@@H]([C@H](C)CCCC(C)C)CC[C@@H]12` [Vitamin D3], the solubility is, setting by setting: under setting [24], 104 mg/mL (≈ 270 mM); under setting [8], 100 mg/mL (≈ 260 mM); (22 °C, organic solvent or mixture, thermodynamic from solid, Solubility in CH2Cl2/MeOH (4:1)) 212 mg/mL (≈ 551 mM); under setting [9], 74.3 mg/mL (≈ 193 mM); under setting [25], 113 mg/mL (≈ 294 mM); under setting [10], under 0.19 mg/mL. The same compound registered a solubility under setting [26] of under 0.19 mg/mL.

Consider `C/C(=C\CNc1ncnc2[nH]cnc12)CO` [Zeatin], for which the solubility by setting is: under setting [24], under 0.19 mg/mL; under setting [8], under 0.19 mg/mL; under setting [9], 0.56 mg/mL (≈ 2.55 mM); under setting [25], 2.28 mg/mL (≈ 10.4 mM); under setting [10], 3.03 mg/mL (≈ 13.8 mM); under setting [26], under 0.19 mg/mL.

`CC1=C(/C=C/C(C)=C/C=C/C(C)=C/C=C/C=C(C)/C=C/C=C(C)/C=C/C2=C(C)C[C@@H](O)CC2(C)C)C(C)(C)C[C@H](O)C1` [Zeaxanthin]: the solubility under setting [11] was under 0.19 mg/mL; the solubility under setting [1] is 0.29 mg/mL (≈ 0.51 mM); the solubility under setting [2] was under 0.19 mg/mL; the solubility under setting [13] was under 0.19 mg/mL; the solubility under setting [3] is under 0.19 mg/mL; the solubility under setting [14] was under 0.19 mg/mL. The “Solubility in CH2Cl2/MeOH (4:1)” value is 0.49 mg/mL (≈ 0.861 mM) under setting [6] and under 100 mg/mL (solvent CH2Cl2/MeOH (4:1, v/v); room temperature (21–23 °C); listed as zeaxanthin).

Consider Megastigmatrienone, for which the “Solubility in CH2Cl2/MeOH (4:1)” value under setting [6] is listed as 212 mg/mL. The “Solubility in MeOH/H2O (7:3)” value under setting [18] is given as 38.8 mg/mL. Further, the “Solubility in CH2Cl2” value under setting [19] stood at 215 mg/mL. Under setting [20], the “Solubility in EtOH” value came to 197 mg/mL. For the same compound, the “Solubility in C6H14” value under setting [21] came to 1.1 mg/mL. Further, the “Solubility in MeOH” value under setting [22] was determined as 228 mg/mL. In addition, under setting [23], the “Solubility in H2O” value is listed as “NS (not soluble, insoluble in the solvent at the tested concentration range (0.19–558 mg/mL))”.

As for Phytol, the “Solubility in MeOH/H2O (7:3)” value under setting [18] is reported as 0.32 mg/mL. For the same compound, the “Solubility in H2O” value under setting [23] is given as “NS (not soluble, insoluble in the solvent at the tested concentration range (0.19–558 mg/mL))”.

Take Vitamin E: the “Solubility in C6H14” value is 215 mg/mL, the “Solubility in CH2Cl2” value was 208 mg/mL, the “Solubility in CH2Cl2/MeOH (4:1)” value came to 241 mg/mL and the “Solubility in EtOH” value was found to be 43.0 mg/mL. Besides, the “Solubility in H2O” value is given as “NS (key: NS: not soluble, insoluble in the solvent at the tested concentration range (0.19–558 mg/mL))”; the “Solubility in MeOH” value is 31.2 mg/mL; the “Solubility in MeOH/H2O (7:3)” value came out at 0.23 mg/mL.
